From ChEMBL document CHEMBL1150705, “Plant anticancer agents XLIV. Cytotoxic constituents from Stizophyllum riparium” (1987)
≈ marks a conversion by molar mass, not a printed value.

Test system: P388
Assay: Cytotoxicity against mouse P388 cells
Format: functional
Settings: read-out: ED50 (the source's name)

SMILES: CC(=O)C1=CC[C@H]2C3=CCC4=C[C@@H](O)[C@H](O)C[C@]4(C)[C@H]3C[C@@H](O)[C@]12C [STIZOPHYLLIN]
- EC50: 0.07 µg/mL (≈ 0.203 µM)
